US20250381190A1, “THERAPEUTIC COMBINATIONS OF CAPIVASERTIB AND VENETOCLAX” (AstraZeneca AB, priority 2022, published 2025)

Legend:
[1] = system: SUDHL4 human GCB-DLBCL tumor cells; assay: SUDHL4 xenograft efficacy (tumor volume, TGI, regression); format: in vivo, female CB.17 SCID mice; details: Study 1
Method: (§1) For the experiments described below, SUDHL4 human GCB-DLBCL tumor cells (10×10^6/mouse) were implanted subcutaneously into female CB.17 SCID mice. Mice were randomized into groups of 5 for efficacy and tolerability assessments based on tumor volume and treated with either vehicles (10% DMSO/25% Kleptose pH=5 (Vehicle 1) and 10% ethanol/30% PEG 400/60% Phosal PG-50 (Vehicle 2)), 130 mg/kg or 45 mg/kg capivasertib, 100 mg/kg venetoclax or the combination of capivasertib and venetoclax. Capivasertib was formulated in 10% DMSO/25% Kleptose pH=5 and venetoclax was formulated in 10% ethanol/30% PEG 400/60% Phosal PG-50. All agents were dosed by oral gavage at a 5 ml/kg dose volume according to schedules described, following tumor cell implantation. Tumor length and width was measured by caliper and tumor volume was calculated using the formula (length×width^2)*π/6.

[2] = Tolerability (body weight change) in SUDHL4 tumor-bearing mice; format: in vivo, female CB.17 SCID mice; details: Study 1
Method: as §1

DLBCL cell lines = assay: In vitro activity against DLBCL cell lines; format: cell-based; details: used individually
[3] = capivasertib 130 mg/kg PO BID 10/14 4 days on/3 days off x 22 days
[4] = venetoclax 100 mg/kg PO QD (continuous) x 22 days

Row | SMILES | Regression [1, 3] | TGI [1, 3] | TGI ([1]; capivasertib 130 mg/kg PO BID 10/14 4 days on/3 days off x 22 days, listed as capivasertib) | Max avg body weight loss [2, 3] | Activity against DLBCL cell lines (DLBCL cell lines) | Regression [1, 4] | TGI [1, 4] | TGI ([1]; venetoclax 100 mg/kg PO QD (continuous) x 22 days, listed as venetoclax) | Max avg body weight loss [2, 4]
1 | NC1(C(=O)N[C@@H](CCO)c2ccc(Cl)cc2)CCN(c2ncnc3[nH]ccc23)CC1 [Capivasertib, (S)-4-amino-N-(1-(4-chlorophenyl)-3-hydroxypropyl)-1-(7H-pyrrolo[2,3-d]pyrimidin-4-yl)piperidine-4-carboxamide] | 0% | 82% | 82% | 6% | have activity | – | – | – | –
2 | CC1(C)CCC(CN2CCN(c3ccc(C(=O)NS(=O)(=O)c4ccc(NCC5CCOCC5)c([N+](=O)[O-])c4)c(Oc4cnc5[nH]ccc5c4)c3)CC2)=C(c2ccc(Cl)cc2)C1 [Venetoclax, 4-(4-{[2-(4-chlorophenyl)-4,4-dimethylcyclohex-1-en-1-yl]methyl}piperazin-1-yl)-N-({3-nitro-4-[(tetrahydro-2H-pyran-4-ylmethyl)amino]phenyl}sulfonyl)-2-(1H-pyrrolo[2,3-b]pyridin-5-yloxy)benzamide] | – | – | – | – | have activity | 0% | 42% | 42% | 2%
